Molecular target: thrombin (Homo sapiens, UniProt P00734)
Experiment: thrombin inhibition test, amidolytic assay with Chromozym TH
Type: biochemical
Details: for Inhibition (%): thrombin, substrate Chromozym TH, pH 8.0, room temperature, 15 min preincubation; for thrombin-inhibiting action of fatty acids identified in the plant drugs (in words): free fatty acids separated from hexane/isopropanol (3:2) lipid extracts by preparative thin layer chromatography
Protocol: As the testing system, an amidolytic assay with Chromozym TH (tosylglycyl-prolyl-arginine-4-nitroanilide acetate) was used as a substrate for thrombin. The principle of the test system is based on the cleavage of the substrate by thrombin, and on the release of p-nitroaniline, which absorbs at a wavelength of 405 nm. The absorption increase over time was detected photometrically. The inhibition of thrombin was calculated by a comparison between the linear initial phase of the absorption increase of the test samples containing the extract, and the blank value.
For the thrombin inhibition test, the method according to Sturzebecher was employed, with the exception of the enzyme concentration (Sturzebecher, J., Vieweg, H. (1995). Structure-Activity Relationships of Inhibitors derived from 3-Amidinophenyl-alanine. J Enzyme Inhib, 9, 87-99). • Buffer: 608 mg Tris buffer and 900 mg NaCl were dissolved in 100 ml bidistilled water. The pH value of the buffer was subsequently set to 8.0, using HCl (2 mMol) (concentrations in the sample: 0.05 mol/1 Tris HCL, 0.154 mol/1 NaCl). The substance to be examined was dissolved in ethanol (5% total volume). This was followed by filling up with buffer. • Enzyme: 1 mg/ml (=50 NIH—U/ml) thrombin was dissolved in 0.9% NaCl solution (stock solution). To prepare the sample, this solution was diluted 1:100 with a solution of 0.9% NaCL and 1% bovine serum albumin. • Substrate: 6.6 mg Chromozym TH was dissolved in 10 ml bidistilled water (concentration=1 mmol/l). • Measurement sample: 200 μl buffer/substance • 25 μl substrate • 50 μl enzyme • Conditions: Room temperature • Implementation: Buffer and enzyme are added together by pipetting and incubated for 15 min. The reaction was started by adding the substrate. • For measuring the absorption, a plate reader, iEMS Reader MF from Labsystems, was used with 96-well microtitre plates. The measurements took place at a wavelength of 405 nm, every 10 seconds, 60 measurements. Prior to start of the measurements, the microtitre plate was shaken at 600 rpm. • Evaluation: The measurements were recorded by means of iEMS Accent Software, and evaluated with Microsoft Excel 97 Software. • To calculate inhibition, the slope in the linear initial phase of the absorption increase in the samples containing the substance to be examined was compared with the slope of the absorption increase in the blank sample. For evaluation, the first 5 measured values were left out of consideration since the bubbles forming on account of the mixing can lead to problems at the beginning of the reaction. The inhibition is calculated as follows:
Inhibition=100−(slopeInhibitor/slopeBlank value*100)

Row | Structure (SMILES) | Inhibition (%) (test concentration not printed) | other results
1 | CCCCCC[C@@H](O)C/C=C/CCCCCCCC(=O)O (stereo in doubt) [Ricinoleic acid, 12-Hydroxy-9-cis-octadecenoic acid] | 43.9% | –
2 | C=CCCCCCCCC(=O)O [9-Decenoic acid] | −3.7% | –
3 | CCCCC/C=C\C/C=C\C/C=C\C/C=C\CCCC(=O)O [Arachidonic acid, 5-cis, 8-cis, 11-cis, 14-cis-Eicosatetraenoic acid] | 75.2% | –
4 | CC/C=C\C/C=C\C/C=C\C/C=C\C/C=C\C/C=C\CCC(=O)O [Docosahexaenoic acid, 4-cis, 7-cis, 10-cis, 13-cis, 16-cis, 19-cis-Docosahexaenoic acid] | −2.5% | –
5 | CC/C=C\C/C=C\C/C=C\C/C=C\C/C=C\CCCC(=O)O [Eicosapentaenoic acid, 5-cis, 8-cis, 11-cis, 14-cis, 17-cis-Eicosapentaenoic acid] | −1.0% | –
6 | CC/C=C\C/C=C\C/C=C\CCCCCCCCCC(=O)O [Eicosatrienoic acid, 11-cis, 14-cis, 17-cis-Eicosatrienoic acid] | 76.0% | –
7 | CCCCCCCC/C=C\CCCCCCCCCC(=O)O [Eicosenoic acid, 11-cis-Eicosenoic acid] | 60.7% | thrombin-inhibiting action of fatty acids identified in the plant drugs (in words): identified as the thrombin-inhibiting substances
8 | CCCCCCCC/C=C/CCCCCCCC(=O)O [Elaidinic acid, 9-trans-Octadecenoic acid] | 7.4% | –
9 | CCCCCCCC/C=C\CCCCCCCCCCCC(=O)O [Eruca acid, 13-cis-Docosaenoic acid] | 7.8% | –
10 | CCCCC/C=C\C/C=C\CCCCCCCC(=O)O [Linoleic acid, 9-cis,12-cis-Octadecadienoic acid] | 71.7% | thrombin-inhibiting action of fatty acids identified in the plant drugs (in words): responsible for the thrombin-inhibiting action
11 | CC/C=C\C/C=C\C/C=C\CCCCCCCC(=O)O [Linolenic acid, 9-cis, 12-cis, 15-cis-Octadecatrienoic acid] | 75.5% | –
12 | CCCCCCCC(=O)O [Octanoic acid] | 0.7% | –
13 | CCCCCCCC/C=C\CCCCCCCC(=O)O [Oleic acid, 9-cis-Octadecenoic acid] | 65.8% | thrombin-inhibiting action of fatty acids identified in the plant drugs (in words): identified as the thrombin-inhibiting substances; Inhibition (%) (test concentration not printed, listed as oleic acid): 66%
14 | CCCCCCCCCCCCCCCC(=O)O [Palmitic acid, Hexadecanoic acid] | 1.4% | thrombin-inhibiting action of fatty acids identified in the plant drugs (in words): without effect
15 | CC/C=C\C/C=C\C/C=C\C/C=C\CCCCC(=O)O [Stearidonic acid, 6-cis, 9-cis, 12-cis, 15-cis-Octadecatetraenoic acid] | 2.4% | –
16 | CCCCCC/C=C\CCCCCCCCCC(=O)O [Vaccenic acid, 11-cis-Octadecenoic acid] | 79.9% | Inhibition (%) (test concentration not given, listed as cis-vaccenic acid): 80%

— US20110268800A1, “Unsaturated fatty acids as thrombin inhibitors” (LTS Lohmann Therapie-Systeme AG, priority 2005, published 2011)
